Experiments:
HT-29 = experiment: Cytotoxic concentration required to inhibit 50% cell growth in HT-29 colon adenocarcinoma cell lines; format: functional; details: Homo sapiens, read-out: ED50 (the source's name)
MLM = experiment: Cytotoxic concentration required to inhibit 50% cell growth in MLM melanoma cell lines; format: functional; details: Homo sapiens, read-out: ED50 (the source's name)
MCF7 = experiment: Cytotoxic concentration required to inhibit 50% cell growth in MCF-7 breast carcinoma cell lines; format: functional; details: Homo sapiens, read-out: ED50 (the source's name)
SK-MEL-5 = experiment: Cytotoxic concentration required to inhibit 50% cell growth in SKMEL-5 melanoma cell lines; format: functional; details: Homo sapiens, read-out: ED50 (the source's name)
A549 = experiment: Cytotoxic concentration required to inhibit 50% cell growth in A-549 lung carcinoma cell lines; format: functional; details: Homo sapiens, read-out: ED50 (the source's name)
Tubulin = Tubulin (Bos taurus, UniProt Q6B856+Q862L2+Q862F3); experiment: Ability to inhibit Tubulin polymerization in Bovine brain; format: functional, tissue-based

Structure (SMILES): COc1cc(/C=C\c2ccc(Cl)cc2)cc(OC)c1OC
- EC50 (HT-29): 50 nM
- EC50 (MLM): 170 nM
- EC50 (MCF7): 180 nM
- EC50 (SK-MEL-5): 10 nM
- EC50 (A549): 80 nM
- IC50 (Tubulin): 4.8 µM

Structure (SMILES): COc1cc(/C=C\c2ccccc2)cc(OC)c1OC
- EC50 (HT-29): 84 nM
- EC50 (MLM): > 25000 nM
- EC50 (MCF7): 250 nM
- EC50 (SK-MEL-5): 120 nM
- EC50 (A549): 170 nM
- IC50 (Tubulin): 36 µM

Structure (SMILES): COc1cc(/C=C\c2ccc(Br)cc2)cc(OC)c1OC
- EC50 (HT-29): 8.2 nM
- EC50 (MLM): 14 nM
- EC50 (MCF7): 16 nM
- EC50 (SK-MEL-5): 6.7 nM
- EC50 (A549): 11 nM
- IC50 (Tubulin): 3.1 µM

Structure (SMILES): COc1ccc(/C=C/c2cc(OC)c(OC)c(OC)c2)cc1
- EC50 (HT-29): 1820 nM
- EC50 (MLM): 2070 nM
- EC50 (MCF7): 1050 nM
- EC50 (SK-MEL-5): 810 nM
- EC50 (A549): 1180 nM
- IC50 (Tubulin): > 50 µM

Structure (SMILES): COc1ccc(NCc2cc(OC)cc(OC)c2)cc1
- EC50 (HT-29): 17800 nM
- EC50 (MLM): > 25000 nM
- EC50 (MCF7): 6080 nM
- EC50 (SK-MEL-5): 2410 nM
- EC50 (A549): 5710 nM
- IC50 (Tubulin): 29 µM

Structure (SMILES): COc1ccc(CCc2cc(OC)c(OC)c(OC)c2)cc1
- EC50 (HT-29): 0.25 nM
- EC50 (MLM): 0.18 nM
- EC50 (MCF7): 0.16 nM
- EC50 (SK-MEL-5): 0.14 nM
- EC50 (A549): 0.18 nM
- IC50 (Tubulin): 7.9 µM

Structure (SMILES): COc1cc(/C=C\c2ccc(OC(C)=O)cc2)cc(OC)c1OC
- EC50 (HT-29): 6000 nM
- EC50 (MLM): 6300 nM
- EC50 (MCF7): 3000 nM
- EC50 (SK-MEL-5): 6000 nM
- EC50 (A549): 1700 nM
- IC50 (Tubulin): 29 µM

Structure (SMILES): COc1ccc(CCc2cc(OC)c(OC)c(OC)c2)cc1O
- EC50 (HT-29): 81 nM
- EC50 (MLM): 10 nM
- EC50 (MCF7): 330 nM
- EC50 (SK-MEL-5): 2.1 nM
- EC50 (A549): 10 nM
- IC50 (Tubulin): 3.3 µM

Structure (SMILES): COc1cc(/C=C/c2ccc(Cl)cc2)cc(OC)c1OC
- EC50 (HT-29): > 25000 nM
- EC50 (MLM): > 25000 nM
- EC50 (MCF7): > 25000 nM
- EC50 (SK-MEL-5): > 25000 nM
- EC50 (A549): > 25000 nM

Structure (SMILES): COc1cc(CCc2ccc(O)cc2)cc(OC)c1OC
- EC50 (HT-29): > 25000 nM
- EC50 (MLM): > 25000 nM
- EC50 (MCF7): > 25000 nM
- EC50 (SK-MEL-5): > 25000 nM
- EC50 (A549): > 25000 nM

Structure (SMILES): COc1cc(OC)c(OC)cc1/C=C/c1cc(OC)c(OC)c(OC)c1
- EC50 (HT-29): > 25000 nM
- EC50 (MLM): > 25000 nM
- EC50 (MCF7): > 25000 nM
- EC50 (SK-MEL-5): > 25000 nM
- EC50 (A549): > 25000 nM

Structure (SMILES): COc1ccc(/C=C\c2cc(OC)c(OC)c(OC)c2)cc1
- EC50 (HT-29): 0.027 nM
- EC50 (MLM): 0.093 nM
- EC50 (A549): 0.022 nM
- IC50 (Tubulin): 2.2 µM

Structure (SMILES): COc1ccc(NC(=O)c2cc(OC)c(OC)c(OC)c2)cc1
- EC50 (HT-29): 22600 nM
- EC50 (MLM): > 25000 nM
- EC50 (MCF7): 12200 nM
- EC50 (SK-MEL-5): > 25000 nM
- EC50 (A549): 14100 nM

Structure (SMILES): COc1ccc(/C=C/c2ccccc2)cc1OC
- EC50 (HT-29): > 25000 nM
- EC50 (MLM): > 25000 nM
- EC50 (MCF7): > 25000 nM
- EC50 (SK-MEL-5): > 25000 nM
- EC50 (A549): > 25000 nM

Structure (SMILES): COc1cccc(CCc2cc(OC)c(OC)c(OC)c2)c1
- EC50 (HT-29): 7600 nM
- EC50 (MLM): > 25000 nM
- EC50 (MCF7): 12400 nM
- EC50 (SK-MEL-5): 9200 nM
- EC50 (A549): 11700 nM

Structure (SMILES): COc1ccc(NCc2cc(OC)c(OC)c(OC)c2)cc1
- EC50 (HT-29): 1 nM
- EC50 (MLM): 1.6 nM
- EC50 (MCF7): 2.4 nM
- EC50 (SK-MEL-5): 0.7 nM
- EC50 (A549): 1.9 nM
- IC50 (Tubulin): 23 µM

Structure (SMILES): COc1cc(/C=C\c2ccncc2)cc(OC)c1OC
- EC50 (HT-29): 12900 nM
- EC50 (MLM): > 25000 nM
- EC50 (MCF7): 17000 nM
- EC50 (SK-MEL-5): 14400 nM
- EC50 (A549): 14200 nM

Structure (SMILES): COc1cc(/C=C/c2cccnc2)cc(OC)c1OC
- EC50 (HT-29): > 25000 nM
- EC50 (MLM): > 25000 nM
- EC50 (MCF7): > 25000 nM
- EC50 (SK-MEL-5): > 25000 nM
- EC50 (A549): > 25000 nM

Structure (SMILES): COc1cc(CNc2cc(OC)c(OC)c(OC)c2)cc(OC)c1OC
- EC50 (HT-29): > 25000 nM
- EC50 (MLM): > 25000 nM
- EC50 (MCF7): > 25000 nM
- EC50 (SK-MEL-5): > 25000 nM
- EC50 (A549): > 25000 nM

Structure (SMILES): COc1cc(CCc2ccc(NC(C)=O)cc2)cc(OC)c1OC
- EC50 (HT-29): > 25000 nM
- EC50 (MLM): > 25000 nM
- EC50 (MCF7): > 25000 nM
- EC50 (SK-MEL-5): > 25000 nM
- EC50 (A549): > 25000 nM

Structure (SMILES): COc1ccc(CCc2ccccc2)c(OC)c1OC
- EC50 (HT-29): > 25000 nM
- EC50 (MLM): > 25000 nM
- EC50 (MCF7): > 25000 nM
- EC50 (SK-MEL-5): > 25000 nM
- EC50 (A549): > 25000 nM

Structure (SMILES): COc1cc(/C=C/c2ccc(N(C)C)cc2)cc(OC)c1OC
- EC50 (HT-29): 6.9 nM
- EC50 (MLM): 12.5 nM
- EC50 (MCF7): 82 nM
- EC50 (SK-MEL-5): 4.6 nM
- EC50 (A549): 6.1 nM
- IC50 (Tubulin): > 50 µM

Structure (SMILES): COc1cc(CCc2ccc(N(C)C)cc2)cc(OC)c1OC
- EC50 (HT-29): 77 nM
- EC50 (MLM): 120 nM
- EC50 (MCF7): 64 nM
- EC50 (SK-MEL-5): 59 nM
- EC50 (A549): 83 nM
- IC50 (Tubulin): 29 µM

Structure (SMILES): COc1ccccc1CCc1cc(OC)c(OC)c(OC)c1
- EC50 (HT-29): > 25000 nM
- EC50 (MLM): > 25000 nM
- EC50 (MCF7): 11800 nM
- EC50 (SK-MEL-5): 20000 nM
- EC50 (A549): 13500 nM

Structure (SMILES): COc1cc(OC)c(OC)cc1CCc1cc(OC)c(OC)c(OC)c1
- EC50 (HT-29): > 25000 nM
- EC50 (MLM): > 25000 nM
- EC50 (MCF7): > 25000 nM
- EC50 (SK-MEL-5): > 25000 nM
- EC50 (A549): > 25000 nM

Structure (SMILES): COc1cc(/C=C/c2ccc(OC(C)=O)cc2)cc(OC)c1OC
- EC50 (HT-29): 5400 nM
- EC50 (MLM): 13000 nM
- EC50 (MCF7): 9600 nM
- EC50 (SK-MEL-5): 4600 nM
- EC50 (A549): 9700 nM

Structure (SMILES): COc1ccc(CNc2cc(OC)c(OC)c(OC)c2)cc1
- EC50 (HT-29): 2240 nM
- EC50 (MLM): > 25000 nM
- EC50 (MCF7): 860 nM
- EC50 (SK-MEL-5): 1130 nM
- EC50 (A549): 830 nM
- IC50 (Tubulin): > 50 µM

Structure (SMILES): COc1cc(OC)c(OC)cc1/C=C/c1ccccc1
- EC50 (HT-29): > 25000 nM
- EC50 (MLM): > 25000 nM
- EC50 (MCF7): 8500 nM
- EC50 (SK-MEL-5): > 25000 nM
- EC50 (A549): > 25000 nM

Structure (SMILES): COc1cccc(/C=C\c2cc(OC)c(OC)c(OC)c2)c1
- EC50 (HT-29): 90 nM
- EC50 (MLM): 1400 nM
- EC50 (MCF7): 140 nM
- EC50 (SK-MEL-5): 60 nM
- EC50 (A549): 130 nM
- IC50 (Tubulin): 8.8 µM

Structure (SMILES): COc1cc(/C=C\c2ccc(N(C)C)cc2)cc(OC)c1OC
- EC50 (HT-29): 8.1 nM
- EC50 (MLM): 9.4 nM
- EC50 (MCF7): 5.8 nM
- EC50 (SK-MEL-5): 0.15 nM
- EC50 (A549): 4.1 nM
- IC50 (Tubulin): 3.4 µM

Structure (SMILES): COc1cc(/C=C\c2ccc([N+](=O)[O-])cc2)cc(OC)c1OC
- EC50 (HT-29): > 25000 nM
- EC50 (MLM): > 25000 nM
- EC50 (MCF7): > 25000 nM
- EC50 (SK-MEL-5): > 25000 nM
- EC50 (A549): > 25000 nM

Structure (SMILES): COc1ccc(/C=C\c2cc(OC)c(OC)c(OC)c2)c(Cl)c1
- EC50 (HT-29): 66 nM
- EC50 (MLM): 140 nM
- EC50 (MCF7): 46 nM
- EC50 (SK-MEL-5): 17 nM
- EC50 (A549): 51 nM
- IC50 (Tubulin): 3.5 µM
